Entries after “also recorded” stand apart in the source; their conditions may differ. Where no end group is shown, it is not given here.
Columns and labels:
[1] = target: T1, GIPR (Rattus norvegicus, UniProt P43219); experiment: GIPR agonism/antagonism in rat INS-1 cells having pGloSensor-22F biosensor; assay type: cell-based; set-up: dose or concentration left out as unconfirmed
T1 construct: endogenous in cells; host or cells: rat INS-1 insulinoma cells (derivatives with a cAMP-luciferase reporter or pGloSensor-22F)
T1 sequence (P43219 19-455): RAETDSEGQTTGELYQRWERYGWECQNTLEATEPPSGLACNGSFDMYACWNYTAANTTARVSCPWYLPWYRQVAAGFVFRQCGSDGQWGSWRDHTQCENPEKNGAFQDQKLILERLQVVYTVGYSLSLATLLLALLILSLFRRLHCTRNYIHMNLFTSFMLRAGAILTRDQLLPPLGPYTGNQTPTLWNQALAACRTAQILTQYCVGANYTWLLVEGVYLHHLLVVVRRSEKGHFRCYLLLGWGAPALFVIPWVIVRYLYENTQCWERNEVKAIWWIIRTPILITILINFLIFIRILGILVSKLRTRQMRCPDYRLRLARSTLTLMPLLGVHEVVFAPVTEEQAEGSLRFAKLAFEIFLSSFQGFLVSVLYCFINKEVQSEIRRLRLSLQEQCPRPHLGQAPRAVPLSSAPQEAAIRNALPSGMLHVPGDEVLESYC
Description: A series of GIP antagonist peptides were evaluated at blocking human GIP (hGIP) agonism and the induction of cAMP. Briefly, rat INS-1 cells having pGloSensor-22F (Promega) were constructed and used to evaluate GIPR agonism and antagonism. […] The conformational change leads to the activation of the luciferase enzyme, thereby allowing detection of activation of GIPR, which produces cAMP upon activation.
To assay for GIPR agonism, rat INS-1 cells having pGloSensor-22F biosensor were treated with increasing concentrations of GIP(Ag). Immediately after the addition, the luminescence of the cells was measured, normalized using the basal luminescence and plotted.
GIPR antagonism was measured as the inhibition of GIP(Ag)-induced activation of the cAMP-luciferase reporter gene in rat INS-1 cells having pGloSensor-22F biosensor. The following GIP derivatives accessed in this assay for GIPR antagonism: GIP(Ant 3-30), GIP(Ant 3-30NH2), (GIP(Ant 3-30) having amidated carboxy terminus), GIP(AntPro3), GIP(AntPro3NH2), GIP(Ant3-30, Pro3) and GIP(Ant3-30, Pro3NH2). Briefly, rat INS-1 cells having pGloSensor-22F were treated with increasing doses of the above various GIP derivatives, mixed with […] GIP(Ag). Immediately after the addition, the luminescence of the cells was measured, normalized using the basal luminescence and plotted.
The GIP(Ag) was re-evaluated across a broader concentration range. Rat INS-1 cells having pGloSensor-22F biosensor were treated with increasing concentrations of GIP(Ag). Immediately after the addition, the luminescence of the cells was measured, normalized using the basal luminescence and plotted.
The GIP(AntPro3) and GIP(AntPro3NH2) were re-evaluated across a broader concentration range. Briefly, rat INS-1 cells having pGloSensor-22F were treated with increasing doses of GIP(AntPro3) and GIP(AntPro3NH2), mixed with […] GIP(Ag). Immediately after the addition, the luminescence of the cells was measured, normalized using the basal luminescence and plotted.

[2] = tested on: rat insulinoma INS-1 cells; experiment: in vitro glucose-stimulated insulin secretion (GSIS) in rat insulinoma INS-1 cells; assay type: cell-based; conditions: 1 hour glucose, then 2 hour incubation; ELISA; FIG. 4B
Text: X is a known inducer of GSIS.

[3] = tested on: HFD-fed mice; experiment: glucose tolerance test (GTT) model in HFD-fed mice; assay type: in vivo; conditions: for serum insulin following glucose administration (time course) / glucose tolerance: GTT; for serum insulin following glucose administration (time course): FIG. 7C; for glucose tolerance: summary of Example 11; for serum glucose following glucose administration (time course): i.v. treatment, 18 hours fast, 2 g/kg glucose i.v., tirzepatide 1.25 mpk, fusion protein 5 mpk, mRNA 1 mpk, FIG. 7A
Description: Cages were changed once, then changed once a week.
The mice administered the above treatment by i.v. injections. The mice were then fasted for 18 hours and administered a dose of 2 g/kg glucose by i.v. injections. Blood samples were drawn by tail clip bleeding at 15, 30 and 60 minutes post dosing and cardiac bleeding was used at 2 hours after glucose injection as end-point.

[4] = tested on: HFD-fed mice; experiment: longer-term obesity model in HFD-fed mice; conditions: for blood glucose levels compared to the untreated mice: Days 0, 1, 10 and 15, FIG. 8E; for weights of individual mice: FIG. 8B; for plasma insulin levels on Day 15: FIG. 8C right panel; for average daily food intake compared to the untreated mice: FIG. 8D; for collagen staining (fibrosis), liver sections stained with picrosirius red / collagen staining (fibrosis) in comparison with tirzepatide or dulaglutide: FIG. 8I; for hepatocellular ballooning and steatosis (liver H&E histology): FIG. 8J; for plasma insulin levels on Day 1: between 15 and 120 minutes after treatment, FIG. 8C left panel; for liver weight, PBS control versus treated mice / subcutaneous white adipose tissue (sWAT) weight: day 19 terminal necropsy; for liver weight, PBS control versus treated mice: FIG. 8G; for subcutaneous white adipose tissue (sWAT) weight: FIG. 8H; for tolerability / clinical observations: obesity model, repeated tail vein dosing; for collagen staining (fibrosis) in comparison with tirzepatide or dulaglutide: picrosirius red; for change in body weight: tail vein on Day 0, 4, 7, 10, 14, 18, dulaglutide 1 mpk, tirzepatide 0.5 mpk, fusion protein 5 mpk, mRNA 1 mpk, FIG. 8A
Description: Mice (Male C57BL/6) were of approximately 13 weeks of age were housed 4 mice per cage. Following 2 weeks of acclimation, mice were introduced to 60% kcal HFD (Research Diets D12492). Cages were changed once, then changed once a week. Weekly body weights and non-fasted blood glucose were collected.
Mice were injected by tail vein with vehicle or the drugs on Day 0, Day 4, Day 7, Day 10, Day 14, and Day 18. Body weights were measured every 2 days. Change in body weight was calculated and plotted.
Cumulative food intake was measured between day 0 and 3, between day 4 and 7, between day 7 and day 11, and between day 11 and day 14, and represented as average daily food intake. For food consumption, remaining food was weighed on days 3, 8, and 15, and subtracted from the starting weight. This value was then normalized to the number of mice in the cage, and the number of days the mice had access to the food prior to weighing.
Blood glucose levels were measured on Days 0, 1, 10 and 15 and plotted.
On day 19 during terminal necropsy, liver and subcutaneous white adipose tissue were recovered weighed from treated animals.
To further analyze the changes in liver, histopathological analysis was conducted. Briefly, the liver tissue was stained with hematoxylin and eosin (H&E) and evaluated using standard techniques.

[5] = target: T2, GIP receptor (GIPR) (Rattus norvegicus, UniProt P43219); experiment: cAMP-Glo assay in rat insulinoma INS-1 cells harboring a cAMP-luciferase reporter gene; assay type: cell-based; conditions: 1 hour glucose, then 2 hour incubation with increasing amounts; FIG. 4A
T2 construct: endogenous in cells; host or cells: rat INS-1 insulinoma cells (derivatives with a cAMP-luciferase reporter or pGloSensor-22F)
T2 sequence (P43219 19-455): T1 sequence (P43219 19-455)
Text: Rat insulinoma INS-1 cells harboring a cAMP-luciferase reporter gene were used to study the activation of GIPR. Without wishing to be bound by theory, the activation of GIPR leads to temporary depletion of ATP because of consumption of ATP in cyclization reaction to produce cAMP as well as by phosphorylation by protein kinase A of its substrate. Without wishing to be bound by theory, the temporary depletion of ATP leads to an inhibition of luciferase activity, which needs ATP as a substrate.

[6] = broader concentration range, mixed with GIP(Ag), FIG. 5B
[7] = increasing doses mixed with GIP(Ag), FIG. 5A

Substance	inhibition of GIP(Ag)-induced activation of the cAMP-luciferase reporter gene (GIPR antagonism) [1, 6]	inhibition of GIP(Ag)-induced activation of the cAMP-luciferase reporter gene (GIPR antagonism) [1, 7]	insulin in the culture supernatant (glucose-stimulated insulin secretion) [2]	serum insulin following glucose administration (time course) [3]	glucose tolerance [3]	serum glucose following glucose administration (time course) [3]	blood glucose levels compared to the untreated mice [4]	weights of individual mice [4]	plasma insulin levels on Day 15 [4]	average daily food intake compared to the untreated mice [4]	collagen staining (fibrosis), liver sections stained with picrosirius red [4]	hepatocellular ballooning and steatosis (liver H&E histology) [4]	plasma insulin levels on Day 1 [4]	liver weight, PBS control versus treated mice [4]	subcutaneous white adipose tissue (sWAT) weight [4]	tolerability / clinical observations [4]	collagen staining (fibrosis) in comparison with tirzepatide or dulaglutide [4]	change in body weight [4]	inhibition of luciferase (activation of GIPR) [5]	hepatocellular ballooning and steatosis (liver H&E histology) compared to untreated animals ([4]; higher magnifications, FIG. 8K)
GIP(AntPro3): GIP Antagonist (amino acids 1-42, having a E3P substitution); SEQ ID NO: 97 (YAPGTFISDYSIAMDKIHQQDFVNWLLAQKGKKNDWKHNITQ)	dose-dependent inhibition of GIP(Ag)-induced activation of the cAMP-luciferase reporter gene	more potent inhibition of GIP agonist signaling than the others tested; also recorded: maximal level of a dose-dependent inhibition of GIP(Ag)-induced activation	–	–	–	–	–	–	–	–	–	–	–	–	–	–	–	–	–	–
GIP(AntPro3NH2): GIP antagonist peptide, GIP(AntPro3) presumably with amidated carboxy terminus (YAPGTFISDYSIAMDKIHQQDFVNWLLAQKGKKNDWKHNITQ; also: presumably amidated C-terminus)	dose-dependent inhibition of GIP(Ag)-induced activation of the cAMP-luciferase reporter gene	more potent inhibition of GIP agonist signaling than the others tested; also recorded: maximal level of a dose-dependent inhibition of GIP(Ag)-induced activation	–	–	–	–	–	–	–	–	–	–	–	–	–	–	–	–	–	–
GLP-1-Fc-GIP(Ag): chimeric protein: GLP-1 fused to GIP agonist (amino acids 1-42) via IgG1 hinge-CH2-CH3 Fc domain; SEQ ID NO: 93	–	–	stimulated insulin production to a similar, if not greater magnitude than dulaglutide or tirzepatide	rapid induction of insulin	improved glucose tolerance	much smaller increase in serum glucose	decrease in blood glucose	induced weight loss	significant decrease in the levels of insulin	decrease in food intake	decrease in collagen staining	decrease in hepatocellular ballooning and steatosis	rapid decrease in insulin levels	the livers of control mice that received only PBS were much heavier compared to the mice receiving treatments	decreased	well tolerated and no overt toxicities were noted	greater decrease in collagen staining compared to the livers from mice treated with tirzepatide or dulaglutide	progressive weight loss	–	–
GLP-1-Fc-GIP(AntPro3): chimeric protein: GLP-1 fused to GIP antagonist (amino acids 1-42, E3P) via IgG1 Fc domain; SEQ ID NO: 95	–	–	–	rapid induction of insulin	improved glucose tolerance	much smaller increase in serum glucose	decrease in blood glucose	induced weight loss	significant decrease in the levels of insulin	decrease in food intake	decrease in collagen staining	decrease in hepatocellular ballooning and steatosis	rapid decrease in insulin levels	the livers of control mice that received only PBS were much heavier compared to the mice receiving treatments	decreased	well tolerated and no overt toxicities were noted	greater decrease in collagen staining compared to the livers from mice treated with tirzepatide or dulaglutide	progressive weight loss	–	–
dulaglutide [reference compound]	–	–	–	–	–	–	decrease in blood glucose	–	significant decrease in the levels of insulin	decrease in food intake	decrease in collagen staining	decrease in hepatocellular ballooning and steatosis	rapid decrease in insulin levels	the livers of control mice that received only PBS were much heavier compared to the mice receiving treatments	decreased	well tolerated and no overt toxicities were noted	–	progressive weight loss	–	–
tirzepatide [reference compound]	–	–	–	rapid induction of insulin	–	much smaller increase in serum glucose	decrease in blood glucose	–	significant decrease in the levels of insulin	decrease in food intake	decrease in collagen staining	decrease in hepatocellular ballooning and steatosis	–	the livers of control mice that received only PBS were much heavier compared to the mice receiving treatments	decreased	–	–	progressive weight loss	dose-dependent and saturable inhibition of luciferase with similar potency	significant decrease in hepatocellular ballooning and steatosis
